Measured values from ChEMBL document CHEMBL4507282, “Data for DCP probe BI-1950” (2021).
The source made the active and inactive calls.

Legend:
[1] = target: Serine/threonine-protein kinase PLK3 (Homo sapiens) (UniProt Q9H4B4); details: Compound concentration 1000.0 nM
[2] = target: Cytoplasmic tyrosine-protein kinase BMX (Homo sapiens) (UniProt P51813); details: Compound concentration 1000.0 nM
[3] = target: BDNF/NT-3 growth factors receptor (Homo sapiens) (UniProt Q16620); details: Compound concentration 1000.0 nM
[4] = target: Serine/threonine-protein kinase 17A (Homo sapiens) (UniProt Q9UEE5); details: Compound concentration 1000.0 nM
[5] = test system: Receptor-type tyrosine-protein kinase FLT3 (Homo sapiens), P36888 [D835Y]; details: Compound concentration 1000.0 nM
[6] = target: Serine/threonine-protein kinase Nek7 (Homo sapiens) (UniProt Q8TDX7); details: Compound concentration 1000.0 nM
Serine/threonine-protein kinase Nek7 (Homo sapiens), sequence (Q8TDX7 whole entry, looked up): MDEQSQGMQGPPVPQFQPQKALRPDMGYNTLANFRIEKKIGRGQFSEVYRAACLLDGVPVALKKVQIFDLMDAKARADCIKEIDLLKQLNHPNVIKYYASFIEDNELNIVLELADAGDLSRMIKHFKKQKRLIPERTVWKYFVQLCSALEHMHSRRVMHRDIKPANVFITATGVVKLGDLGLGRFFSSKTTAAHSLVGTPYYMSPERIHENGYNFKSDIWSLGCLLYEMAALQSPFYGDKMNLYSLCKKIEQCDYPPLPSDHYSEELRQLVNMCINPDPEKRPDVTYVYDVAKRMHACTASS

[7] = target: MAP kinase-interacting serine/threonine-protein kinase 1 (Homo sapiens) (UniProt Q9BUB5); details: Compound concentration 1000.0 nM
[8] = target: Dual specificity protein kinase CLK4 (Homo sapiens) (UniProt Q9HAZ1); details: Compound concentration 1000.0 nM
[9] = target: Mitogen-activated protein kinase 14 (Homo sapiens) (UniProt Q16539); details: Compound concentration 1000.0 nM
[10] = target: 5-hydroxytryptamine receptor 7 (Homo sapiens) (UniProt P34969); details: Compound concentration 10.0 uM
5-hydroxytryptamine receptor 7 (Homo sapiens), sequence (P34969 whole entry): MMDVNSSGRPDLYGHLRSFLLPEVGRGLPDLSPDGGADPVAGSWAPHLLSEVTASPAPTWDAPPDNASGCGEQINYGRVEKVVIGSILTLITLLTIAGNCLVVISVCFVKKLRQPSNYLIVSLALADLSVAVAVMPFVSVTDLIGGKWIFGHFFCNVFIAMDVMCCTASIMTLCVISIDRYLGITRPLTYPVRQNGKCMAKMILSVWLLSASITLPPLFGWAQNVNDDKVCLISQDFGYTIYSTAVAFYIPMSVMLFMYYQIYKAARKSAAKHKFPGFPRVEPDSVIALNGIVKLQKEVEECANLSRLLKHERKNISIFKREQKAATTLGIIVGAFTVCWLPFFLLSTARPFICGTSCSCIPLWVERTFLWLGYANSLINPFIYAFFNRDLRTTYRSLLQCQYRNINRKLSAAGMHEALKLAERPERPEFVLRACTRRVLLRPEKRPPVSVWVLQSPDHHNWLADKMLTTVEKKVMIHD

[11] = target: Calcium-dependent protein kinase 1 (Plasmodium falciparum) (UniProt P62344); details: Compound concentration 1000.0 nM
[12] = target: SNF-related serine/threonine-protein kinase (Homo sapiens) (UniProt Q9NRH2); details: Compound concentration 1000.0 nM
[13] = target: Tyrosine-protein kinase Srms (Homo sapiens) (UniProt Q9H3Y6); details: Compound concentration 1000.0 nM
Tyrosine-protein kinase Srms (Homo sapiens), sequence (Q9H3Y6 whole entry): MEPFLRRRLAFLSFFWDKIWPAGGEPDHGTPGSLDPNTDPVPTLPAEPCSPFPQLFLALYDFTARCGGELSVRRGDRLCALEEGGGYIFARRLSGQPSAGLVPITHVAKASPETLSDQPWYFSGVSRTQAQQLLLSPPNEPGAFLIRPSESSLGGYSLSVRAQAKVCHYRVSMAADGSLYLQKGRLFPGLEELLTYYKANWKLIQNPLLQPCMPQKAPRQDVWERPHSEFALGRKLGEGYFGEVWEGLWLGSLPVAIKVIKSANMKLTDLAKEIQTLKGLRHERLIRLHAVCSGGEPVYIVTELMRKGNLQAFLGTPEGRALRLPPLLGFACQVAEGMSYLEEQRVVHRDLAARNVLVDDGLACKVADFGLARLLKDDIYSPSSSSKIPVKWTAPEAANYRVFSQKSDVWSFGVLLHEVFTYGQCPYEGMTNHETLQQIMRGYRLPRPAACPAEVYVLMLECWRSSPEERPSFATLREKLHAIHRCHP

[14] = target: Hepatocyte growth factor receptor (Homo sapiens) (UniProt P08581); details: Compound concentration 1000.0 nM
[15] = target: Ephrin type-A receptor 1 (Homo sapiens) (UniProt P21709); details: Compound concentration 1000.0 nM
[16] = target: Tyrosine-protein kinase Lyn (Homo sapiens) (UniProt P07948); details: Compound concentration 1000.0 nM
[17] = target: Serine/threonine-protein kinase RIO1 (Homo sapiens) (UniProt Q9BRS2); details: Compound concentration 1000.0 nM
[18] = target: Serine/threonine-protein kinase RIO3 (Homo sapiens) (UniProt O14730); details: Compound concentration 1000.0 nM
Serine/threonine-protein kinase RIO3 (Homo sapiens), sequence (O14730 whole entry): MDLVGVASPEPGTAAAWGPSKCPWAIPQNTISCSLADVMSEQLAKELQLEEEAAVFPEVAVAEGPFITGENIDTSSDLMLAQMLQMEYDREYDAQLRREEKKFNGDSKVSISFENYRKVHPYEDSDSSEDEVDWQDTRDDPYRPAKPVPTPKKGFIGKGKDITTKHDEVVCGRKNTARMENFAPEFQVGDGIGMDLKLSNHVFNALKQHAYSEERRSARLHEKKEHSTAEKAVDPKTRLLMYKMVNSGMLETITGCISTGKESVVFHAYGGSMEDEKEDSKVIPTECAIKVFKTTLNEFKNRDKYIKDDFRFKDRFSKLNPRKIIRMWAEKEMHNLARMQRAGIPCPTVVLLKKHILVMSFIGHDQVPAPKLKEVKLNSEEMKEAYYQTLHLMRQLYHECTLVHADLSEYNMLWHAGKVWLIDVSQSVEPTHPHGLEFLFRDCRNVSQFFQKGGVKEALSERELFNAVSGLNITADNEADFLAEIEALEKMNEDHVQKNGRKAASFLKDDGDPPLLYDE

[19] = target: Serine/threonine-protein kinase Nek2 (Homo sapiens) (UniProt P51955); details: Compound concentration 1000.0 nM
[20] = target: Leukocyte tyrosine kinase receptor (Homo sapiens) (UniProt P29376); details: Compound concentration 1000.0 nM
[21] = test system: Epidermal growth factor receptor (Homo sapiens), P00533 [UNDEFINED MUTATION]; details: Compound concentration 1000.0 nM
Epidermal growth factor receptor (Homo sapiens), P00533 [UNDEFINED MUTATION], sequence (P00533 whole entry, looked up, change not shown): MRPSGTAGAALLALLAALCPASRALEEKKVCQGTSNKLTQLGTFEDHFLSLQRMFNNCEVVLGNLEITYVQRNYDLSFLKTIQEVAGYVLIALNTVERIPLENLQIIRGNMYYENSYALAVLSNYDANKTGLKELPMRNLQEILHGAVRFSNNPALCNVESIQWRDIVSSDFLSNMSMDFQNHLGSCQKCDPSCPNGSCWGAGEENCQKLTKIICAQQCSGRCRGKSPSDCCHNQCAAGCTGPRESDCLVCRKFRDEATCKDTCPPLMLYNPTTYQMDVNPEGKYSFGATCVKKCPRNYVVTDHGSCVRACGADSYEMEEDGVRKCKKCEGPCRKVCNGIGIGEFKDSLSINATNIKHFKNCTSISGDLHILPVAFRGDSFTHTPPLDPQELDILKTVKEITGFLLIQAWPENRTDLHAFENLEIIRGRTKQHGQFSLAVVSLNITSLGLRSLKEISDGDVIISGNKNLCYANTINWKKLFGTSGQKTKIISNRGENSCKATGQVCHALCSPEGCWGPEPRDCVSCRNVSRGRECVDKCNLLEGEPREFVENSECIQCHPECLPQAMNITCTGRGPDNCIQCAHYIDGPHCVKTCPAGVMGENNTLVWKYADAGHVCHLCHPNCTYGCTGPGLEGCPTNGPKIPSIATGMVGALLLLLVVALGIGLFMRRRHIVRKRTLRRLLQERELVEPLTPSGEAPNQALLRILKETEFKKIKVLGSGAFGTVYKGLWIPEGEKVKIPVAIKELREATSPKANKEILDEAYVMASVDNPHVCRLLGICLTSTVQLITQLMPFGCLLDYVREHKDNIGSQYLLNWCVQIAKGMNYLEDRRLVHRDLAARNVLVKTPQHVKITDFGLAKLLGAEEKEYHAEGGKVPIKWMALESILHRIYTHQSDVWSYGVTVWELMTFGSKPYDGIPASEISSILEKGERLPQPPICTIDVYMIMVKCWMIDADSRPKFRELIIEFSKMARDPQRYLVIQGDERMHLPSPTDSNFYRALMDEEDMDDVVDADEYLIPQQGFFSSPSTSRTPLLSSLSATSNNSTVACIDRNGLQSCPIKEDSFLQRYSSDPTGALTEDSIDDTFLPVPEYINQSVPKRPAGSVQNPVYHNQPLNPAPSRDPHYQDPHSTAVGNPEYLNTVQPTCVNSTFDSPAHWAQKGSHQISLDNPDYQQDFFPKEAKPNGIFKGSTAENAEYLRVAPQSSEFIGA

[22] = target: TRAF2 and NCK-interacting protein kinase (Homo sapiens) (UniProt Q9UKE5); details: Compound concentration 1000.0 nM
[23] = target: Phosphatidylinositol 4,5-bisphosphate 3-kinase catalytic subunit delta isoform (Homo sapiens) (UniProt O00329); details: Compound concentration 1000.0 nM
Integrin alpha-L = Integrin alpha-L (Homo sapiens, UniProt P20701); test: ITGAL binding assay
[24] = target: Serine/threonine-protein kinase SIK1 (Homo sapiens) (UniProt P57059); details: Compound concentration 1000.0 nM
[25] = target: Myosin-IIIa (Homo sapiens) (UniProt Q8NEV4); details: Compound concentration 1000.0 nM
[26] = target: Serine/threonine-protein kinase PRP4 homolog (Homo sapiens) (UniProt Q13523); details: Compound concentration 1000.0 nM
[27] = target: NT-3 growth factor receptor (Homo sapiens) (UniProt Q16288); details: Compound concentration 1000.0 nM
[28] = target: Macrophage colony-stimulating factor 1 receptor (Homo sapiens) (UniProt P07333); details: Compound concentration 1000.0 nM
[29] = target: Serine/threonine-protein kinase TAO2 (Homo sapiens) (UniProt Q9UL54); details: Compound concentration 1000.0 nM
[30] = target: G protein-coupled receptor kinase 4 (Homo sapiens) (UniProt P32298); details: Compound concentration 1000.0 nM
[31] = target: Microtubule-associated serine/threonine-protein kinase 1 (Homo sapiens) (UniProt Q9Y2H9); details: Compound concentration 1000.0 nM
[32] = target: Rhodopsin kinase GRK7 (Homo sapiens) (UniProt Q8WTQ7); details: Compound concentration 1000.0 nM
Rhodopsin kinase GRK7 (Homo sapiens), sequence (Q8WTQ7 whole entry): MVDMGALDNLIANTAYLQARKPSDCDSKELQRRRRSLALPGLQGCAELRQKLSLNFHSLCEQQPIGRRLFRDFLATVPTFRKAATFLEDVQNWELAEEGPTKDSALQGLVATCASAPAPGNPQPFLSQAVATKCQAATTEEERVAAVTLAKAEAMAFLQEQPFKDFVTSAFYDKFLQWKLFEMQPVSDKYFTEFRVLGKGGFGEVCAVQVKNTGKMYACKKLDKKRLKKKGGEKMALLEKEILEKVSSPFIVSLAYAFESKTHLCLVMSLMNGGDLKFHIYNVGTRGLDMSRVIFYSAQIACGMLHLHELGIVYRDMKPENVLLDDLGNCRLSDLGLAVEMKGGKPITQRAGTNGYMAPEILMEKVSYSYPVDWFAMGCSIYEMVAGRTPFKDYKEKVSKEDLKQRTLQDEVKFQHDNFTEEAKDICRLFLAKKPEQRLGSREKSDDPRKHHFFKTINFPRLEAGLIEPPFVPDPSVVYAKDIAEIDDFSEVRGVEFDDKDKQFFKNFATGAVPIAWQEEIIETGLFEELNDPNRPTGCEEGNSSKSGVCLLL

[33] = test system: Tyrosine-protein kinase ABL1 (Homo sapiens), P00519 [F317L]; details: Compound concentration 1000.0 nM
[34] = target: Cyclin-dependent kinase 4 (Homo sapiens) (UniProt P11802); details: Compound concentration 1000.0 nM
[35] = test system: Hepatocyte growth factor receptor (Homo sapiens), P08581 [Y1235D]; details: Compound concentration 1000.0 nM
[36] = target: Serine/threonine-protein kinase PAK 2 (Homo sapiens) (UniProt Q13177); details: Compound concentration 1000.0 nM
[37] = target: Serine/threonine-protein kinase D2 (Homo sapiens) (UniProt Q9BZL6); details: Compound concentration 1000.0 nM
[38] = target: Receptor-type tyrosine-protein kinase FLT3 (Homo sapiens) (UniProt P36888); details: Compound concentration 1000.0 nM
[39] = target: Vascular endothelial growth factor receptor 2 (Homo sapiens) (UniProt P35968); details: Compound concentration 1000.0 nM
Vascular endothelial growth factor receptor 2 (Homo sapiens), sequence (P35968 whole entry): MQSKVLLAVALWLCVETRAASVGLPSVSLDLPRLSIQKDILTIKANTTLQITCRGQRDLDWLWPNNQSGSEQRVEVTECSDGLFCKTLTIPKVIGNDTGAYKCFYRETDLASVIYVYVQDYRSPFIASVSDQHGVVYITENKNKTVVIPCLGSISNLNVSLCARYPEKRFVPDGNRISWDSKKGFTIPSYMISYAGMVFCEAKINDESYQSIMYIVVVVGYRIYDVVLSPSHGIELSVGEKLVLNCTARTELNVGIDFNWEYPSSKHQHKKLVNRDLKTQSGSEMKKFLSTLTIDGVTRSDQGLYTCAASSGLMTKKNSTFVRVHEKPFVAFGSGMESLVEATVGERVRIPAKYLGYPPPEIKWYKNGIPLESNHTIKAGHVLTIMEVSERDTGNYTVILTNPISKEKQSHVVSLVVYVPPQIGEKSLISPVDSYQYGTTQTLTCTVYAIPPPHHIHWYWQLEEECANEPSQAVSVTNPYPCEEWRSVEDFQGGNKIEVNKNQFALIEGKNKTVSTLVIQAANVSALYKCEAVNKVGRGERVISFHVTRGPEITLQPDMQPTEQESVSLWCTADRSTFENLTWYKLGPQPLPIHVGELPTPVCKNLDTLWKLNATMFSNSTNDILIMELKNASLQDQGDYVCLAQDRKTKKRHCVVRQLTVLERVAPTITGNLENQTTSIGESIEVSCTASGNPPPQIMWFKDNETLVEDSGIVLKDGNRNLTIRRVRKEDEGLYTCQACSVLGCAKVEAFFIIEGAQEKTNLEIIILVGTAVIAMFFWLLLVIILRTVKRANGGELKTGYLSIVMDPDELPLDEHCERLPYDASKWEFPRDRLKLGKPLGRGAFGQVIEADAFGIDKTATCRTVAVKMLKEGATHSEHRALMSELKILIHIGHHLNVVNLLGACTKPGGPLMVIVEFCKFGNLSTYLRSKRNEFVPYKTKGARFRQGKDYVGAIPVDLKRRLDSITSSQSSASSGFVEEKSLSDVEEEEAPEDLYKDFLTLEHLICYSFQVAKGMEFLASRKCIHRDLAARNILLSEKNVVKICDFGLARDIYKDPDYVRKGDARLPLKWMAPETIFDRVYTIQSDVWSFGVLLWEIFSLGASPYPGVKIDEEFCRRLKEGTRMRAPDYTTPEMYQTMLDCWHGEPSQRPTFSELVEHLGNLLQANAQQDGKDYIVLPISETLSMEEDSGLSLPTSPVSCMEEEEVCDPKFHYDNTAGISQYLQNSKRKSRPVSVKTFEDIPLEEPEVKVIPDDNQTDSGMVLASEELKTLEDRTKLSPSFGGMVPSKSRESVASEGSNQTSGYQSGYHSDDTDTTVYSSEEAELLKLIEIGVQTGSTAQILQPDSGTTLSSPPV

[40] = test system: Epidermal growth factor receptor (Homo sapiens), P00533 [UNDEFINED MUTATION]; details: Compound concentration 1000.0 nM; remark: listed apart in the source
[41] = target: Ephrin type-A receptor 2 (Homo sapiens) (UniProt P29317); details: Compound concentration 1000.0 nM
[42] = target: ALK tyrosine kinase receptor (Homo sapiens) (UniProt Q9UM73); details: Compound concentration 1000.0 nM
[43] = target: Epithelial discoidin domain-containing receptor 1 (Homo sapiens) (UniProt Q08345); details: Compound concentration 1000.0 nM
[44] = target: Discoidin domain-containing receptor 2 (Homo sapiens) (UniProt Q16832); details: Compound concentration 1000.0 nM

C[C@H](NC(=O)c1cnc2n1[C@](C)(Cc1ccc(C#N)cc1)C(=O)N2c1cc(Cl)c(F)c(Cl)c1)C(=O)NC1(c2ccccn2)CC1 [BI 1950]
inactive: residual activity [1] 81% | residual activity [2] 77% | residual activity [3] 100% | residual activity [4] 100% | residual activity [5] 100% | residual activity [6] 100% | residual activity [7] 93% | residual activity [8] 88% | residual activity [9] 100% | inhibition [10] -4.31% | residual activity [11] 100% | residual activity [12] 100% | residual activity [13] 100% | residual activity [14] 100% | residual activity [15] 100% | residual activity [16] 100% | residual activity [17] 100% | residual activity [18] 100% | residual activity [19] 95% | residual activity [20] 100% | residual activity [21] 100% | residual activity [22] 100% | residual activity [23] 95% | residual activity [24] 100% | residual activity [25] 100% | residual activity [26] 77% | residual activity [27] 100% | residual activity [28] 100% | residual activity [29] 92% | residual activity [30] 100% | residual activity [31] 100% | residual activity [32] 100% | residual activity [33] 98% | residual activity [34] 100% | residual activity [35] 100% | residual activity [36] 92% | residual activity [37] 100% | residual activity [38] 100% | residual activity [39] 99% | residual activity [40] 100% | residual activity [41] 75% | residual activity [42] 100% | residual activity [43] 100% | residual activity [44] 100%
active: Kd (Integrin alpha-L) 9 nM

C[C@@]1(Cc2ccc(C#N)cc2)C(=O)N(c2cc(Cl)cc(Cl)c2)c2ncc(C(=O)NC3(c4nc(C5CCC5)no4)CC3)n21 [BI 9446]
> 1000 nM (not active): Kd (Integrin alpha-L)
inactive: residual activity [1] 100% | residual activity [3] 100% | residual activity [4] 91% | residual activity [5] 100% | residual activity [6] 100% | residual activity [7] 100% | residual activity [8] 97% | residual activity [9] 100% | inhibition [10] 4.18% | residual activity [11] 100% | residual activity [12] 100% | residual activity [13] 100% | residual activity [14] 100% | residual activity [15] 100% | residual activity [16] 95% | residual activity [17] 100% | residual activity [18] 100% | residual activity [19] 83% | residual activity [20] 100% | residual activity [21] 100% | residual activity [22] 100% | residual activity [23] 73% | residual activity [24] 100% | residual activity [25] 100% | residual activity [26] 91% | residual activity [27] 100% | residual activity [28] 100% | residual activity [29] 100% | residual activity [30] 100% | residual activity [31] 100% | residual activity [32] 100% | residual activity [33] 100% | residual activity [34] 100% | residual activity [35] 100% | residual activity [36] 64% | residual activity [37] 100% | residual activity [38] 98% | residual activity [39] 100% | residual activity [40] 100% | residual activity [41] 56% | residual activity [42] 100% | residual activity [43] 81% | residual activity [44] 100%
active: residual activity [2] 40%
